Experimental data taken from patent US20240325495A1, “FUSION PROTEINS FOR THE TREATMENT OF DISEASE” (Bristol-Myers Squibb Company, priority 2020, published 2024).

Tested on: NZB×NZW F1 mice
Assay: mIL-2/CD25 and prednisolone combination in NZB×NZW mice
Assay type: in vivo, mouse
Description: The effect of mIL-2/CD25 on Tregs was also assessed in the spleen at completion of this study (after 14 weeks of treatment).
At completion of study, one kidney from each mouse was collected in RNA Later and then homogenized in mRNA Catcher Lysis Buffer with a Tissue Lyser. mRNA was purified using mRNA Catcher PLUS according to the manufacturer's protocol (Invitrogen). cDNA was synthesized using SuperScript II with random hexamer primers. PCR was performed with SYBR Green Master Mix (Invitrogen). Relative quantification analysis was determined using the 2-ΔΔCT method using cyclophilin (PPIA) as the housekeeping gene. Expression of inflammatory cytokine and leukocyte surface receptors were analyzed.

In the case of `C[C@]12C=CC(=O)C=C1CC[C@@H]1[C@@H]2[C@@H](O)C[C@@]2(C)[C@H]1CC[C@]2(O)C(=O)CO` [prednisolone, Prednisolone], the “percentage of Tregs and CD25 MFI on Tregs in the spleen” value (after 14 weeks of treatment) is reported as “did not alter” and the “proteinuria levels and anti-dsDNA titers” value (prednisolone 1 mg/kg p.o. 3×/week, mIL-2/CD25 0.1 mg/kg s.c. 2×/week, or both, 14 weeks) is reported as “partial protection”.
